These results are taken from patent US9771370B2, “Compounds for the inhibition of indoleamine-2,3-dioxygenase” (Merck Patent GmbH, priority 2014, dated 2017).

A value given as a limit tells only on which side of the number the result lay.

Sequence of Recombinant human IDO (P14902 whole entry): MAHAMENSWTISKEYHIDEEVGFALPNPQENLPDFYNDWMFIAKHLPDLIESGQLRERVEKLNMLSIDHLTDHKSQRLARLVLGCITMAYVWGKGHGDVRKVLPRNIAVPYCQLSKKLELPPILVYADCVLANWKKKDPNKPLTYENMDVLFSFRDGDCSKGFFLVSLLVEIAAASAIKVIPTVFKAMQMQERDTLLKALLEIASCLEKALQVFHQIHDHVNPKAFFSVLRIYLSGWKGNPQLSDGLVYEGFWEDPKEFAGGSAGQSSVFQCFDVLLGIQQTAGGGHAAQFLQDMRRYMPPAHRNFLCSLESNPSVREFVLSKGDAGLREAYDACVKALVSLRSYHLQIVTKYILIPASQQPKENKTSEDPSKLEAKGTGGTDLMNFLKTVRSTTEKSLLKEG

In this assay the target is Recombinant human IDO (Homo sapiens, UniProt P14902). Kind of assay: Bridge-IT tryptophan fluorescence assay of human IDO-1 inhibition. The class given is biochemical. The note with it: recombinant human IDO 7.5 nM, L-tryptophan. The protocol:
Measurement of human IDO-1 inhibition is performed in 384 well format using the Bridge-IT® tryptophan Fluorescence Assay (Mediomics, LLC, St. Louis, Mo., U.S.A.).
The reaction is initiated by the addition of L-Tryptophan (Sigma) at a final concentration of 100 μM in assay buffer. After 90 minutes of incubation at 37° C., the reaction is stopped by transferring 1 μl of the reaction mixture to 9 μl of Bridge-IT assay solution A. After 30 min of incubation at 30° C., the fluorescence intensity was measured at λex=485 nm and λem=665 nm using Perkin Elmer Envision® Multilabel Reader.
Measurement of human IDO-1 inhibition was performed in 384-well format using the BRIDGE-IT® tryptophan Fluorescence Assay (Mediomics, LLC, St. Louis, Mo., U.S.A.). […] After 30 minutes of pre-incubation at 25° C., the reaction was initiated by the addition of L-Tryptophan (Sigma) at a final concentration of 50 μM in assay buffer. After 60 minutes of incubation at 25° C., the reaction is stopped by transferring 1 μl of the reaction mixture to 9 μl of Bridge-IT assay solution A. After 30 min of incubation at 30° C., the fluorescence intensity was measured at λex=485 nm and λem=665 nm using Perkin Elmer ENVISION® Multilabel Reader.
As a reminder, the IC50 is the midpoint of a concentration-inhibition curve. In the case of `FC1(CCC2c3ccccc3-c3cncn32)CCCCC1` (single isomer, unassigned) [Compound 1a, 5-(2-(1-fluorocyclohexyl)ethyl)-5H-imidazo[5,1-a]isoindole], the concentration for half-maximal inhibition (IC50) was > 1000 nM. On to `FC1(CCC2c3ccccc3-c3cncn32)CCCCC1` (single isomer, unassigned) [Compound 1b, 5-(2-(1-fluorocyclohexyl)ethyl)-5H-imidazo[5,1-a]isoindole], for which the IC50 was in the range of 100 to 1000 nM.

As to `OC(CC1c2ncccc2-c2cncn21)C1CCCCC1` (single isomer, unassigned) [Compound 5a, 1-cyclohexyl-2-[4,6,9-triazatricyclo[6.4.0.0^[2,6]]dodeca-1(8),2,4,9,11-pentaen-7-yl]ethan-1-ol], the 50% inhibitory concentration (IC50) was 100 to 1000 nM. Under `OC(CC1c2ncccc2-c2cncn21)C1CCCCC1` (single isomer, unassigned) [Compound 5b, 1-cyclohexyl-2-[4,6,9-triazatricyclo[6.4.0.0^[2,6]]dodeca-1(8),2,4,9,11-pentaen-7-yl]ethan-1-ol] stands > 1000 nM. With `OC1CCC(F)(CCC2c3ncccc3-c3cncn32)CC1` (single isomer, unassigned) [Compound 8a, 4-fluoro-4-(2-{4,6,9-triazatricyclo[6.4.0.0^[2,6]]dodeca-1(8),2,4,9,11-pentaen-7-yl}ethyl)cyclohexan-1-ol], the concentration for half-maximal inhibition (IC50) is 100 to 1000 nM.

As for `OC1CCC(F)(CCC2c3ncccc3-c3cncn32)CC1` (single isomer, unassigned) [Compound 8b, 4-fluoro-4-(2-{4,6,9-triazatricyclo[6.4.0.0^[2,6]]dodeca-1(8),2,4,9,11-pentaen-7-yl}ethyl)cyclohexan-1-ol], the IC50 is > 1000 nM. Under `FC1(CCC2c3cnccc3-c3cncn32)CCCCC1` (single isomer, unassigned) [Compound 10a, 7-[2-(1-fluorocyclohexyl)ethyl]-4,6,10-triazatricyclo[6.4.0.0^[2,6]]dodeca-1(8),2,4,9,11-pentaene] stands > 1000 nM; under `FC1(CCC2c3cnccc3-c3cncn32)CCCCC1` (single isomer, unassigned) [Compound 10b, 7-[2-(1-fluorocyclohexyl)ethyl]-4,6,10-triazatricyclo[6.4.0.0^[2,6]]dodeca-1(8),2,4,9,11-pentaene], > 1000 nM. The result for `OC1CCC(F)(CCC2c3ccccc3-c3cncn32)CC1` (single isomer, unassigned) [Compound 13a, 4-(2-(5H-imidazo[5,1-a]isoindol-5-yl)ethyl)-4-fluorocyclohexanol] reads > 1000 nM; that for `OC1CCC(F)(CCC2c3ccccc3-c3cncn32)CC1` (single isomer, unassigned) [Compound 13b, 4-(2-(5H-imidazo[5,1-a]isoindol-5-yl)ethyl)-4-fluorocyclohexanol], < 100 nM. Under `COc1cc2c(cn1)-c1cncn1C2CCC1(F)CCCCC1` (single isomer, unassigned) [Compound 15a, 7-[2-(1-fluorocyclohexyl)ethyl]-10-methoxy-4,6,11-triazatricyclo[6.4.0.0^[2,6]]dodeca-1(8),2,4,9,11-pentaene] stands > 1000 nM; under `COc1cc2c(cn1)-c1cncn1C2CCC1(F)CCCCC1` (single isomer, unassigned) [Compound 15b, 7-[2-(1-fluorocyclohexyl)ethyl]-10-methoxy-4,6,11-triazatricyclo[6.4.0.0^[2,6]]dodeca-1(8),2,4,9,11-pentaene], > 1000 nM. Consider `OC1CCC(F)(CCC2c3c(F)cccc3-c3cncn32)CC1` (single isomer, unassigned) [Compound 16a, 4-fluoro-4-(2-(6-fluoro-5H-imidazo[5,1-a]isoindol-5-yl)ethyl)cyclohexanol], for which the 50% inhibitory concentration (IC50) was < 100 nM. Consider `OC1CCC(F)(CCC2c3c(F)cccc3-c3cncn32)CC1` (single isomer, unassigned) [Compound 16b, 4-fluoro-4-(2-(6-fluoro-5H-imidazo[5,1-a]isoindol-5-yl)ethyl)cyclohexanol], for which the IC50 fell in the range of 100 to 1000 nM. The result for `FC1(CCC2c3ncccc3-c3cncn32)CCCCC1` (single isomer, unassigned) [Compound 18a, 7-[2-(1-fluorocyclohexyl)ethyl]-4,6,9-triazatricyclo[6.4.0.0^[2,6]]dodeca-1(8),2,4,9,11-pentaene] reads 100 to 1000 nM; that for `FC1(CCC2c3ncccc3-c3cncn32)CCCCC1` (single isomer, unassigned) [Compound 18b, 7-[2-(1-fluorocyclohexyl)ethyl]-4,6,9-triazatricyclo[6.4.0.0^[2,6]]dodeca-1(8),2,4,9,11-pentaene], > 1000 nM; that for `Fc1cccc2c1C(CCC1(F)CCCCC1)n1cncc1-2` (single isomer, unassigned) [Compound 19a, 6-fluoro-5-(2-(1-fluorocyclohexyl)ethyl)-5H-imidazo[5,1-a]isoindole], > 1000 nM. Take `Fc1cccc2c1C(CCC1(F)CCCCC1)n1cncc1-2` (single isomer, unassigned) [Compound 19b, 6-fluoro-5-(2-(1-fluorocyclohexyl)ethyl)-5H-imidazo[5,1-a]isoindole]: the concentration for half-maximal inhibition (IC50) was < 100 nM.

Turning to `OC(CC1c2ncccc2-c2cncn21)C1CCC(F)(F)CC1` (single isomer, unassigned) [Compound 22a, 1-(4,4-difluorocyclohexyl)-2-[4,6,9-triazatricyclo[6.4.0.0^[2,6]]dodeca-1(8),2,4,9,11-pentaen-7-yl]ethan-1-ol], the IC50 lay within 100 to 1000 nM. The result for `OC(CC1c2ncccc2-c2cncn21)C1CCC(F)(F)CC1` (single isomer, unassigned) [Compound 22b, 1-(4,4-difluorocyclohexyl)-2-[4,6,9-triazatricyclo[6.4.0.0^[2,6]]dodeca-1(8),2,4,9,11-pentaen-7-yl]ethan-1-ol] reads > 1000 nM.

In the case of `OC(CC1c2ncccc2-c2cncn21)C1CCC(F)(F)CC1` (single isomer, unassigned) [Compound 22c, 1-(4,4-difluorocyclohexyl)-2-[4,6,9-triazatricyclo[6.4.0.0^[2,6]]dodeca-1(8),2,4,9,11-pentaen-7-yl]ethan-1-ol], the concentration for half-maximal inhibition (IC50) is > 1000 nM.

For `OC(CC1c2ncccc2-c2cncn21)C1CCC(F)(F)CC1` (single isomer, unassigned) [Compound 22d, 1-(4,4-difluorocyclohexyl)-2-[4,6,9-triazatricyclo[6.4.0.0^[2,6]]dodeca-1(8),2,4,9,11-pentaen-7-yl]ethan-1-ol], the IC50 is > 1000 nM. In the case of `CC1(C)CCC(F)(CCC2c3c(F)cccc3-c3cncn32)CC1` (single isomer, unassigned) [Compound 23a, 6-fluoro-5-(2-(1-fluoro-4,4-dimethylcyclohexyl)ethyl)-5H-imidazo[5,1-a]isoindole], the half-maximal inhibitory concentration (IC50) was > 1000 nM. As for `OC(CC1c2cc(F)ncc2-c2cncn21)C1CCCCC1` (single isomer, unassigned) [Compound 24a, 1-cyclohexyl-2-[10-fluoro-4,6,11-triazatricyclo[6.4.0.0^[2,6]]dodeca-1(8),2,4,9,11-pentaen-7-yl]ethan-1-ol], the concentration for half-maximal inhibition (IC50) is > 1000 nM. Under `OC(CC1c2cc(F)ncc2-c2cncn21)C1CCCCC1` (single isomer, unassigned) [Compound 24b, 1-cyclohexyl-2-[10-fluoro-4,6,11-triazatricyclo[6.4.0.0^[2,6]]dodeca-1(8),2,4,9,11-pentaen-7-yl]ethan-1-ol] stands > 1000 nM; under `OC(CC1c2cc(F)ncc2-c2cncn21)C1CCCCC1` (single isomer, unassigned) [Compound 24c, 1-cyclohexyl-2-[10-fluoro-4,6,11-triazatricyclo[6.4.0.0^[2,6]]dodeca-1(8),2,4,9,11-pentaen-7-yl]ethan-1-ol], < 100 nM. Consider `OC(CC1c2cc(F)ncc2-c2cncn21)C1CCCCC1` (single isomer, unassigned) [Compound 24d, 1-cyclohexyl-2-[10-fluoro-4,6,11-triazatricyclo[6.4.0.0^[2,6]]dodeca-1(8),2,4,9,11-pentaen-7-yl]ethan-1-ol], for which the concentration for half-maximal inhibition (IC50) was < 100 nM.

For the compound `CC1(C)CCC(C(O)CC2c3nc(F)ccc3-c3cncn32)CC1` (single isomer, unassigned) [Compound 25a, 1-(4,4-dimethylcyclohexyl)-2-[10-fluoro-4,6,9-triazatricyclo[6.4.0.0^[2,6]]dodeca-1(8),2,4,9,11-pentaen-7-yl]ethan-1-ol], the IC50 was > 1000 nM. As for `CC1(C)CCC(C(O)CC2c3nc(F)ccc3-c3cncn32)CC1` (single isomer, unassigned) [Compound 25b, 1-(4,4-dimethylcyclohexyl)-2-[10-fluoro-4,6,9-triazatricyclo[6.4.0.0^[2,6]]dodeca-1(8),2,4,9,11-pentaen-7-yl]ethan-1-ol], the 50% inhibitory concentration (IC50) is > 1000 nM. For `CC1(C)CCC(C(O)CC2c3nc(F)ccc3-c3cncn32)CC1` (single isomer, unassigned) [Compound 25c, 1-(4,4-dimethylcyclohexyl)-2-[10-fluoro-4,6,9-triazatricyclo[6.4.0.0^[2,6]]dodeca-1(8),2,4,9,11-pentaen-7-yl]ethan-1-ol], the IC50 was > 1000 nM. `CC1(C)CCC(C(O)CC2c3nc(F)ccc3-c3cncn32)CC1` (single isomer, unassigned) [Compound 25d, 1-(4,4-dimethylcyclohexyl)-2-[10-fluoro-4,6,9-triazatricyclo[6.4.0.0^[2,6]]dodeca-1(8),2,4,9,11-pentaen-7-yl]ethan-1-ol]: the IC50 was > 1000 nM.
